Measurements reported in ChEMBL document CHEMBL4828725 (Eur J Med Chem, 2021).

Columns and labels:
[1] = Inhibition of rice alpha-glucosidase using p-nitrophenyl glycoside as substrate assessed as release of p-nitrophenol measured by spectrometric assay; parameters: species or system Oryza sativa
[2] = Inhibition of rat intestinal maltase using maltose as substrate assessed as release of D-glucose measured by spectrometric assay
[3] = molecular target: T1, Sucrase-isomaltase, intestinal (Rattus norvegicus, UniProt P23739); experiment: Inhibition of rat intestinal sucrase using p-nitrophenyl glycoside as substrate assessed as release of p-nitrophenol measured by spectrometric assay
[4] = molecular target: T1, Sucrase-isomaltase, intestinal; experiment: Inhibition of rat intestinal isomaltase using p-nitrophenyl glycoside as substrate assessed as release of p-nitrophenol measured by spectrometric assay
[5] = Inhibition of almond beta-glucosidase using p-nitrophenyl glycoside as substrate assessed as release of p-nitrophenol measured by spectrometric assay; parameters: species or system Prunus dulcis
Prunus dulcis = experiment: Inhibition of almond beta-glucosidase using p-nitrophenyl glycoside as substrate assessed as release of p-nitrophenol at 1000 uM measured by spectrometric assay relative to control
[6] = Inhibition of bovine liver beta-glucosidase using p-nitrophenyl glycoside as substrate assessed as release of p-nitrophenol measured by spectrometric assay; parameters: species or system Bos taurus
Bos taurus [7] = organism: Bos taurus; experiment: Inhibition of bovine liver beta-glucosidase using p-nitrophenyl glycoside as substrate assessed as release of p-nitrophenol at 1000 uM measured by spectrometric assay relative to control; type: tissue-based
Alpha-galactosidase = Alpha-galactosidase (Coffea arabica, UniProt Q42656); experiment: Inhibition of coffee beans alpha-galactosidase using p-nitrophenyl glycoside as substrate assessed as release of p-nitrophenol measured by spectrometric assay
[8] = Inhibition of bovine liver beta-galactosidase using p-nitrophenyl glycoside as substrate assessed as release of p-nitrophenol measured by spectrometric assay; type: tissue-based, Bos taurus
Bos taurus [9] = organism: Bos taurus; experiment: Inhibition of bovine liver beta-galactosidase using p-nitrophenyl glycoside as substrate assessed as release of p-nitrophenol at 1000 uM measured by spectrometric assay relative to control
[10] = Inhibition of jack bean alpha-mannosidase using p-nitrophenyl glycoside as substrate assessed as release of p-nitrophenol measured by spectrometric assay; parameters: species or system Canavalia ensiformis
[11] = molecular target: T2, Alpha-mannosidase (Canavalia ensiformis) (UniProt C0HJB3); experiment: Inhibition of jack bean alpha-mannosidase using p-nitrophenyl glycoside as substrate assessed as release of p-nitrophenol at 1000 uM measured by spectrometric assay relative to control
T2 sequence (whole entry): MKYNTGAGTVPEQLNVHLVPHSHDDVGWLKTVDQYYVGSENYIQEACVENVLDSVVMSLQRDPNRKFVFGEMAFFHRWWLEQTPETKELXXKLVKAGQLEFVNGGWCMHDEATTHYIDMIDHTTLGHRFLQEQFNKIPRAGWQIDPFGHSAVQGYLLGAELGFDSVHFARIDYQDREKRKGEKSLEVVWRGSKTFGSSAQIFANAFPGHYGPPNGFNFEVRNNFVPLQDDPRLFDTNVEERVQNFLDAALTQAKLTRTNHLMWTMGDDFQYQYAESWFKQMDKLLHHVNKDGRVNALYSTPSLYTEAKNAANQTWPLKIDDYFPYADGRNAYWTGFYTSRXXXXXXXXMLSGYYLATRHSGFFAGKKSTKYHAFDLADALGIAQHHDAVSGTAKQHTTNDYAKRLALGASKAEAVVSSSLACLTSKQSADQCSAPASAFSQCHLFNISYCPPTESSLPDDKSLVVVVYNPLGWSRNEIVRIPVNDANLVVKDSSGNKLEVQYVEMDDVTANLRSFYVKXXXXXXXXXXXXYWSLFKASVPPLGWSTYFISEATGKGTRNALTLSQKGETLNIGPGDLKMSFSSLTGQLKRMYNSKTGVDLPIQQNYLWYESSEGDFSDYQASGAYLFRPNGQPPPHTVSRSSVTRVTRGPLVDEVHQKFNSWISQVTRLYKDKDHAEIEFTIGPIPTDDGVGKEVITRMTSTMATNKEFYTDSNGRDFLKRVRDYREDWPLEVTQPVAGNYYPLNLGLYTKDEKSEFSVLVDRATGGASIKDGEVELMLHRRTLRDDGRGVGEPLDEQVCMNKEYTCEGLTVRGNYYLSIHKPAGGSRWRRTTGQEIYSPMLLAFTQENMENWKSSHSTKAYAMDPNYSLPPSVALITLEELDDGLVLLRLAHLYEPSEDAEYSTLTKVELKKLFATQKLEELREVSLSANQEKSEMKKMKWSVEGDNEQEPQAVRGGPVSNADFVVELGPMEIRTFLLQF

[12] = Inhibition of snail beta-mannosidase using p-nitrophenyl glycoside as substrate assessed as release of p-nitrophenol measured by spectrometric assay; parameters: species or system Helix pomatia
Helix pomatia = experiment: Inhibition of snail beta-mannosidase using p-nitrophenyl glycoside as substrate assessed as release of p-nitrophenol at 1000 uM measured by spectrometric assay relative to control
[13] = molecular target: T3, Tissue alpha-L-fucosidase (Bos taurus, UniProt Q2KIM0); experiment: Inhibition of bovine kidney alpha-L-fucosidase using p-nitrophenyl glycoside as substrate assessed as release of p-nitrophenol measured by spectrometric assay
T3 sequence (Q2KIM0 whole entry): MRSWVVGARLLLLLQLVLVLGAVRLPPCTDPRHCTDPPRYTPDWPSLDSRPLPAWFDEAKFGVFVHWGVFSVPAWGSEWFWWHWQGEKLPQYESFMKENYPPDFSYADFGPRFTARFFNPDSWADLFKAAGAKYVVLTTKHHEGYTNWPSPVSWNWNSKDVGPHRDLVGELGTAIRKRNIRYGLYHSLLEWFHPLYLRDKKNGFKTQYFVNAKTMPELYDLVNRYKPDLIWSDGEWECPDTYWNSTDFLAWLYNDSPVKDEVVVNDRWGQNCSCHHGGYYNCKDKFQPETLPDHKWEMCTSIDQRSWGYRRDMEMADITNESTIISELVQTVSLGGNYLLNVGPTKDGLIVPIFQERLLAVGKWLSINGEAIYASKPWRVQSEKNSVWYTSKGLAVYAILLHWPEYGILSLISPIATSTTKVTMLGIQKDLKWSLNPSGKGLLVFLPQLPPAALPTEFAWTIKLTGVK

[14] = molecular target: T4, Tissue alpha-L-fucosidase (Bos taurus) (UniProt Q2KIM0); experiment: Inhibition of bovine kidney alpha-L-fucosidase using p-nitrophenyl glycoside as substrate assessed as release of p-nitrophenol at 1000 uM measured by spectrometric assay relative to control; type: tissue-based
T4 sequence (whole entry): T3 sequence (Q2KIM0 whole entry)

[15] = Inhibition of porcine kidney alpha-trehalase using p-nitrophenyl glycoside as substrate assessed as release of p-nitrophenol measured by spectrometric assay; parameters: species or system Sus scrofa
[16] = Inhibition of Aspergillus niger amyloglucosidase using p-nitrophenyl glycoside as substrate assessed as release of p-nitrophenol measured by spectrometric assay
Aspergillus niger = experiment: Inhibition of Aspergillus niger amyloglucosidase using p-nitrophenyl glycoside as substrate assessed as release of p-nitrophenol at 1000 uM measured by spectrometric assay relative to control
[17] = Inhibition of Penicillium decumbens alpha-L-rhamnosidase using p-nitrophenyl glycoside as substrate assessed as release of p-nitrophenol measured by spectrometric assay
Penicillium decumbens = experiment: Inhibition of Penicillium decumbens alpha-L-rhamnosidase using p-nitrophenyl glycoside as substrate assessed as release of p-nitrophenol at 1000 uM measured by spectrometric assay relative to control
Beta-glucuronidase = Beta-glucuronidase (Escherichia coli (strain K12), UniProt P05804); experiment: Inhibition of Escherichia coli beta-glucuronidase using p-nitrophenyl glycoside as substrate assessed as release of p-nitrophenol measured by spectrometric assay
[18] = molecular target: Beta-glucuronidase (Escherichia coli (strain K12)) (UniProt P05804); experiment: Inhibition of Escherichia coli beta-glucuronidase using p-nitrophenyl glycoside as substrate assessed as release of p-nitrophenol at 1000 uM measured by spectrometric assay relative to control
Maltase-glucoamylase = Maltase-glucoamylase (Homo sapiens, UniProt O43451); experiment: Inhibition of human alpha-glucosidase
[19] = molecular target: Alpha-galactosidase (Coffea arabica) (UniProt Q42656); experiment: Inhibition of coffee beans alpha-galactosidase using p-nitrophenyl glycoside as substrate assessed as release of p-nitrophenol at 1000 uM measured by spectrometric assay relative to control
[20] = Inhibition of beta-glucosidase (unknown origin); parameters: species or system Homo sapiens
Sus scrofa = organism: Sus scrofa; experiment: Inhibition of porcine kidney alpha-trehalase using p-nitrophenyl glycoside as substrate assessed as release of p-nitrophenol at 1000 uM measured by spectrometric assay relative to control
Rattus norvegicus = organism: Rattus norvegicus; experiment: Inhibition of rat intestinal maltase using maltose as substrate assessed as release of D-glucose at 1000 uM measured by spectrometric assay
Oryza sativa = experiment: Inhibition of rice alpha-glucosidase using p-nitrophenyl glycoside as substrate assessed as release of p-nitrophenol at 1000 uM measured by spectrometric assay
[21] = Inhibition of Agrobacterium sp beta-glucosidase using p-nitrophenyl beta-glucoside as substrate assessed as release of p-nitrophenol measured by plate reader assay

Sequence of Beta-glucuronidase (Escherichia coli (strain K12)) (P05804 whole entry, looked up): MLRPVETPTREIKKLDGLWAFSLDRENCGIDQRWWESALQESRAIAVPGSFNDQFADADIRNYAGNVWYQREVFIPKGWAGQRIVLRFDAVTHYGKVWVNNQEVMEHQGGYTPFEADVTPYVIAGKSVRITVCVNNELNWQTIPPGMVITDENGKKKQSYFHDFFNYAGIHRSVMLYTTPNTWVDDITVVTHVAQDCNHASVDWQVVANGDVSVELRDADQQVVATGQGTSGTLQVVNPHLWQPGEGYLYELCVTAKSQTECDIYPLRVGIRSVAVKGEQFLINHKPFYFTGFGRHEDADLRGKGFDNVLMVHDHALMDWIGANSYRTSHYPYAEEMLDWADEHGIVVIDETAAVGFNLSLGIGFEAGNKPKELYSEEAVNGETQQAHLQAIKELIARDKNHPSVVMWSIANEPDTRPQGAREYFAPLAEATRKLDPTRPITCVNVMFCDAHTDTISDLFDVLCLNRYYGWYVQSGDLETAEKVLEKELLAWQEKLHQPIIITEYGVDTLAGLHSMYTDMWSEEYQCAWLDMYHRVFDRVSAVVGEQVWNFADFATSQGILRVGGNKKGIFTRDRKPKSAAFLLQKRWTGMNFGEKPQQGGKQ
Sequence of Beta-glucuronidase (P05804 whole entry): as the sequence (P05804 whole entry, looked up) above
Sequence of Alpha-galactosidase (Q42656 whole entry): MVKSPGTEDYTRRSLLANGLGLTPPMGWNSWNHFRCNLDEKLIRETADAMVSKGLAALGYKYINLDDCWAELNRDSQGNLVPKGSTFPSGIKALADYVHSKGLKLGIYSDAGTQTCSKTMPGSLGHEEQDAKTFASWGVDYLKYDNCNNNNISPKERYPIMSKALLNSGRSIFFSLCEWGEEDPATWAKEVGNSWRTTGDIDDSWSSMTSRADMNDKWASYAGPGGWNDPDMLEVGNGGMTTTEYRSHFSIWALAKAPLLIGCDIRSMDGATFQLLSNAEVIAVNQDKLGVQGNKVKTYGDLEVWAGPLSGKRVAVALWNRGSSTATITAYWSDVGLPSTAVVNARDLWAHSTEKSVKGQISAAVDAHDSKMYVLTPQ
T1 sequence (P23739 1-1013 limits assumed): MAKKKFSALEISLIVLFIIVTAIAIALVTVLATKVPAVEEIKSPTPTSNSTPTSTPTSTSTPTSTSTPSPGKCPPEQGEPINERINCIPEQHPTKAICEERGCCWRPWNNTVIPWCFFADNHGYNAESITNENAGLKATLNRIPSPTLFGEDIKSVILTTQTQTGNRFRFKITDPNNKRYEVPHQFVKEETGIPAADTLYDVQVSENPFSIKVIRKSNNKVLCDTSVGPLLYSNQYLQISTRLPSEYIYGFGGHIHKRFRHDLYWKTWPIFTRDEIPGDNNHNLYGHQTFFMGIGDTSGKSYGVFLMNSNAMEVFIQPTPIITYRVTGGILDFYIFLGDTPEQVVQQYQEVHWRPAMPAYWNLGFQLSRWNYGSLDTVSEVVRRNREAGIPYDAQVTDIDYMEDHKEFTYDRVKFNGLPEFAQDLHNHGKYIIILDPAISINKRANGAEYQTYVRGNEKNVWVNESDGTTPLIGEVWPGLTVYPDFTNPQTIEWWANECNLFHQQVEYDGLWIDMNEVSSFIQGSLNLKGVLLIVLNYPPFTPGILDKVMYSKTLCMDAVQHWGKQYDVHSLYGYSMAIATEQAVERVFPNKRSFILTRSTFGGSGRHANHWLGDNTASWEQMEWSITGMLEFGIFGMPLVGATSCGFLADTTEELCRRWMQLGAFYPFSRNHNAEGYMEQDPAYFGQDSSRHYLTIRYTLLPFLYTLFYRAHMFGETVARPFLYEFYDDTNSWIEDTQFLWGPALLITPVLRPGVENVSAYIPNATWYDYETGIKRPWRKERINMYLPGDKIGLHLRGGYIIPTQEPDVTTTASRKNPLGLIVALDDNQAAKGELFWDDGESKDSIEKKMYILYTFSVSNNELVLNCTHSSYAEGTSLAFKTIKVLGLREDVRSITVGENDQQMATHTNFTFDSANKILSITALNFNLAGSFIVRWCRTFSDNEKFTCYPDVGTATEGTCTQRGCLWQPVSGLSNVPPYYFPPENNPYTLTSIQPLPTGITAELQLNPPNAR
T1 sequence (P23739 1014-1841 limits assumed): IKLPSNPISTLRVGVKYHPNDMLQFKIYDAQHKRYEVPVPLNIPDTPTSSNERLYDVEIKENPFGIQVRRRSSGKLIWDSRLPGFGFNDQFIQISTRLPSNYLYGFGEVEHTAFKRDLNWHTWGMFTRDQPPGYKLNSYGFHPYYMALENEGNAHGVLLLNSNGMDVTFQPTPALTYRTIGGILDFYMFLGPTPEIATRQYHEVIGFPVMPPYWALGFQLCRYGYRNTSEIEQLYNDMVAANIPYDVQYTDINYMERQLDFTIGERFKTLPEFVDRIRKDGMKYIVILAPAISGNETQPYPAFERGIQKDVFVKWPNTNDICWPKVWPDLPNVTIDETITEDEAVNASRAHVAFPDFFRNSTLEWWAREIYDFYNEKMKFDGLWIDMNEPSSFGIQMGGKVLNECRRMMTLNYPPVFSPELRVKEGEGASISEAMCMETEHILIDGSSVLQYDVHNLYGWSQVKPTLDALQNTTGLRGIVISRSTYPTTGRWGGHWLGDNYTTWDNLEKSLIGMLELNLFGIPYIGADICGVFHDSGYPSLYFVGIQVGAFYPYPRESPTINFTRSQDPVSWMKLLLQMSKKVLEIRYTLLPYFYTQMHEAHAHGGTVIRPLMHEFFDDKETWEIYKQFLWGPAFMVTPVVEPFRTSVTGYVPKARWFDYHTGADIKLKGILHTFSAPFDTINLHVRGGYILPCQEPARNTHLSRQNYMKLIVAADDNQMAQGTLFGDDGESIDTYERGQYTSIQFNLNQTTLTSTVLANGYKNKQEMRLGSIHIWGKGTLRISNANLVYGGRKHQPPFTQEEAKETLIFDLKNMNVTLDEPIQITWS
Sequence of Alpha-galactosidase (Coffea arabica) (Q42656 16-378 limits assumed): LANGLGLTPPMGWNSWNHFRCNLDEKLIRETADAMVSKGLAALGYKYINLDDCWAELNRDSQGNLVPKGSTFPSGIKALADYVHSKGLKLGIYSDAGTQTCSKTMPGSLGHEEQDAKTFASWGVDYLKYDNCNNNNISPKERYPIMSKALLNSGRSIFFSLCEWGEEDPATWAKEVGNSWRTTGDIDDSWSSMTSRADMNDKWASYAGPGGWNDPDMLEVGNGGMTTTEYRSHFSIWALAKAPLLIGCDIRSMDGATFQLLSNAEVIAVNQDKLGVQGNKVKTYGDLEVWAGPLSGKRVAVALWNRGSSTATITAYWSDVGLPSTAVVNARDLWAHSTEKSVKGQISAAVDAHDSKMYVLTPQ

IC50 [2] | IC50 [5] | inhibition (Prunus dulcis) | IC50 [6] | inhibition (Bos taurus [7]) | IC50 [10] | inhibition [11] | IC50 [12] | inhibition (Helix pomatia) | IC50 [13] | inhibition [14] | IC50 [16] | IC50 [17] | inhibition (Penicillium decumbens) | IC50 (Beta-glucuronidase) | inhibition [18] | SMILES | IC50 ([1]; read-out: IC50) | IC50 [8] | inhibition (Bos taurus [9]) | IC50 ([15]; read-out: IC50) | also measured
53 nM | Not Active | 6.7% | Not Active | 9.5% | Not Active | 2.1% | Not Active | 2% | Not Active | 0% | Not Active | Not Active | 2.4% | Not Active | 0% | C[C@]1(CO)NC[C@H](O)[C@@H](O)[C@@H]1O.Cl | 15.5 nM | Not Active | 11.9% | 42000 nM | IC50 ([3]; read-out: IC50): 200 nM; IC50 ([4]; read-out: IC50): 960 nM; IC50 (Alpha-galactosidase; read-out: IC50): 7500 nM; inhibition (Aspergillus niger): 8%; IC50 (Maltase-glucoamylase): 1000 nM
765000 nM | Not Active | 5.2% | Not Active | 29.8% | Not Active | 3.3% | Not Active | 0% | Not Active | 1.1% | Not Active | Not Active | 4.8% | Not Active | 5.3% | CCCCCCCCCCC[C@@]1(CO)NC[C@H](O)[C@@H](O)[C@@H]1O.Cl |  |  |  |  | IC50 [1]: Not Active; IC50 [3]: Not Active; IC50 [4]: Not Active; IC50 (Alpha-galactosidase): Not Active; inhibition [19]: 1.6%; IC50 ([8]; read-out: IC50): 100000 nM; IC50 [15]: Not Active; inhibition (Sus scrofa): 0%; inhibition (Aspergillus niger): 0%; inhibition (Rattus norvegicus): 4.6%; inhibition (Oryza sativa): 17.6%
 |  |  |  |  |  |  |  |  |  |  |  |  |  |  |  | C#Cc1ccc(C(=O)OCCCCCCN2C[C@H](O)[C@@H](O)[C@H](O)[C@H]2CO)cc1 |  |  |  |  | IC50 [21]: 2200 nM

SMILES | IC50 [2] | IC50 [5] | inhibition (Prunus dulcis) | IC50 [6] | inhibition (Bos taurus [7]) | IC50 [10] | inhibition [11] | IC50 [12] | inhibition (Helix pomatia) | IC50 [13] | inhibition [14] | IC50 [16] | IC50 [17] | inhibition (Penicillium decumbens) | IC50 (Beta-glucuronidase) | inhibition [18] | IC50 ([1]; read-out: IC50) | IC50 [8] | inhibition (Bos taurus [9]) | IC50 ([15]; read-out: IC50) | also measured
OC[C@H]1NC[C@H](O)[C@@H](O)[C@@H]1O [DUVOGLUSTAT] | 120 nM | Not Active | 12.1% | Not Active | 4.6% | Not Active | 17.4% | Not Active | 4.8% | Not Active | 1% |  | Not Active | 45.6% | Not Active | 0.8% | 440 nM | Not Active | 0% | 48000 nM | IC50 (Alpha-galactosidase): Not Active; inhibition [19]: 13.7%; IC50 ([16]; read-out: IC50): 763000 nM; IC50 [20]: 270 nM
